# Test results taken from US20080085833A1, “Use Of Glycerol As An Anti-Moss And/Or Anti-Lichen Agent” (priority 2004, published 2008).
# System: mosses and lichens
# Assay: Anti-moss and anti-lichen effect of glycerol-based compositions, overall observation on mosses and lichens
# Format: in vivo
# Excerpt: An anti-moss and/or anti-lichen composition is first prepared by solubilizing the required amount of glycerol in water at room temperature, in an appropriate vessel, to give a solution containing 99%, 65% or 20% by weight of glycerol.
# The anti-moss and/or anti-lichen composition is maintained at this same temperature in a vessel fitted with a nozzle to enable the product to be sprayed onto a vertical or horizontal surface.
# A sufficient amount of anti-moss and/or anti-lichen composition containing 99%, 65% or 20% by weight of glycerol, with or without gluconic acid, is applied by the process of the invention to 3 different surfaces covered with crustaceous lichens, gelatinous lichens and mosses.
# For the series of 3 treatments, visual observations were made periodically after treatment with the glycerol compositions described, and then at regular intervals for 3 weeks.
smiles,measurement,setting,value
"OCC(O)CO [Pure glycerol, glycerol]",anti-moss and/or anti-lichen activity on dilution,glycerol diluted to 20%,without losing its anti-moss and/or anti-lichen activity
same,efficacy for removing mosses and/or lichens,pure glycerol,effective
